Results reported in PMC3720801, “A Proline-Hinge Alters the Characteristics of the Amphipathic α-helical AMPs” (PLoS ONE, 2013).
≈ marks a conversion by molar mass, not a printed value. Peptide text beside a SMILES is read from it.

Assays:
[1] = test system: Trichosporon beigelii (KCTC 7707); test: Antifungal MTT assay MIC; type: cell-based; conditions: YPD pH 5.5, 24 h at 28°C, absorbance 570 nm, triplicate
[2] = test system: Staphylococcus epidermidis (KCTC 1917); conditions: broth microdilution, 1% bactopeptone, 5×10^3 CFU/ml, 10 h at 37°C, OD 620 nm, triplicate
[3] = test system: Bacillus subtilis (KCTC 1918); conditions: broth microdilution, 1% bactopeptone, 5×10^3 CFU/ml, 10 h at 37°C, OD 620 nm, triplicate
[4] = test system: Escherichia coli (KCTC 1682); conditions: broth microdilution, 1% bactopeptone, 5×10^3 CFU/ml, 10 h at 37°C, OD 620 nm, triplicate
[5] = test system: Pseudomonas aeruginosa (KCTC 1637); conditions: broth microdilution, 1% bactopeptone, 5×10^3 CFU/ml, 10 h at 37°C, OD 620 nm, triplicate
S. aureus (KCTC 1621) = conditions: broth microdilution, 1% bactopeptone, 5×10^3 CFU/ml, 10 h at 37°C, OD 620 nm, triplicate
[6] = test system: Candida albicans (KCTC 7270); conditions: MTT assay, YPD pH 5.5, 24 h at 28°C, absorbance 570 nm, triplicate
[7] = test system: Saccharomyces cerevisiae (KCTC 7296); conditions: MTT assay, YPD pH 5.5, 24 h at 28°C, absorbance 570 nm, triplicate
[8] = test system: Salmonella typhimurium (KCTC 1926); conditions: broth microdilution, 1% bactopeptone, 5×10^3 CFU/ml, 10 h at 37°C, OD 620 nm, triplicate
[9] = test system: Proteus vulgaris (KCTC 2433); conditions: broth microdilution, 1% bactopeptone, 5×10^3 CFU/ml, 10 h at 37°C, OD 620 nm, triplicate
C. albicans cells = test: Flow cytometric analysis of cell membrane permeability (PI uptake); type: cell-based, Candida albicans; conditions: 30 min on ice, 12.5 µM Anal 3 or melittin, peptides at MIC
Procedure: Membrane integrity following peptide treatment was evaluated using flow cytometry. Anal 3, Anal 3-Pro or melittin (control) was added to C. albicans cells (2×10^5 cells in YPD media) to the MIC, after which cell membrane permeabilization was detected by incubating the treated cells in 50 µg/ml propidium iodide (PI) for 30 min at 4°C. After removing the unbound dye by extensively washing with PBS, the cells were subjected to flow cytometric analysis using a FACScalibur flow cytometer (Becton Dickinson, San Jose, CA). PI fluorescence was monitored in the FL2-H channel.

[10] = FITC-dextran leakage from liposomes; conditions: 10 µM peptide, peptide/lipid 1/10, 25°C, FITC fluorescence
Procedure: FITC-labeled dextrans (FD-4, 10, 20, 40, 70 and 500) were utilized as model cytoplasmic components. FD (fluorescein isothiocyanate dextrans), with average molecular masses of 4, 10, 20, 40, 70, and 500 kDa were all purchased from the Sigma Chemical Co. (St. Louis, MO). FD-entrapping liposomes (unilamellar vesicles) with different lipid compositions were prepared using the reverse-phase evaporation method, after which the concentrations of the FD-entrapping vesicles were determined in triplicate using a phosphorus assay. To prepare FD-entrapping liposomes, a buffer solution (buffer II: PBS) containing 2 mg/ml of the FD was sonicated for 30 min with a lipid solution in chloroform (20 mg/ml) on ice. The chloroform was then gradually removed using a rotary vacuum evaporator at 25°C, resulting first in the formation of a viscous gel and then a liposome suspension. Buffer (2 ml) was added, and the suspension was evaporated further to remove the remaining solvent. The liposome suspensions were then centrifuged and washed for several cycles at 22,000×gav for 30 min in order to remove unentrapped-FD. The washed liposomes were extruded 30 times through polycarbonate filters (two stacked 0.4-µm pore size filters) using an Avanti Mini-Extruder (Avanti Polar Lipids inc., Alabaster, AL) to obtain liposomes of homogeneous size (∼400 nm). Aliquots of the peptide solutions at appropriate concentrations were incubated with a suspension of FD-loaded liposomes (100 µM) for 1–20 min at 25°C, and were then centrifuged for 30 min at 22,000×g. The supernatants were recovered and the leakage was recorded by monitoring the FITC fluorescence intensity (excitation wavelength: 494 nm, emission wavelength: 520 nm). 100% leakage was achieved by addition of Triton X-100 to a final concentration of 1 mM. The percent leakage value was then plotted.

T. begellii = test: Confocal laser-scanning microscopy, localization of FITC-conjugated peptides; type: cell-based; conditions: 15 min at 28°C
[11] = test system: plasmid DNA (pBluescript SK(+)); test: DNA gel retardation; type: binding; conditions: plasmid DNA 100 ng, 10 min at 37°C, agarose gel
[12] = In vitro binding assay to insoluble polysaccharide; conditions: 100 µg polysaccharide + 5 µg peptide, room temperature 1 h, SDS-PAGE
Procedure: Chitin (β-1,4-N-acetyl-D-glucosamine), chitosan (β-1,4-D-glucosamine), cellulose (β-1,4-glucan), curdlan (β-1,3-glucan) and peptidoglycan (β-1,4-glycosidic linkage between N-acetyl muramic and N-acetylglucosamine) were used for the in vitro binding assay of Anal 3-Pro. One hundred µg of each insoluble polysaccharide was added in 5 µg of purified Anal 3-Pro and incubated at room temperature with mild agitation for 1 h. The mixture was centrifuged (10,000×g for 2 min) and the pellet was washed three times with 1 ml of washing buffer (10 mM Tris, pH 7.5, 500 mM NaCl, 0.02% Tween 20). The peptide bound to insoluble polysaccaharide was detached by adding SDS-polyacrylamide gel electrophoresis sample buffer.

Molecule	MIC Yeast TB [1] [µM]	MIC G(+) SE [2] [µM]	MIC G(+) BS [3] [µM]	MIC G(−) EC [4] [µM]	MIC G(−) PA [5] [µM]	MIC G(+) SA (S. aureus (KCTC 1621)) [µM]	MIC Yeast CA [6] [µM]	MIC Yeast SC [7] [µM]	MIC G(−) ST [8] [µM]	MIC G(−) PV [9] [µM]	PI influx (membrane permeabilization), in words (C. albicans cells)	release of FD4 from PC/CH liposomes [10] [%]	release of FD4 from PE/PG liposomes [10] [%]	release of larger FD markers from PC/CH vesicles [10]	release of larger FD markers from PE/PG liposomes [10]	intracellular localization of FITC-conjugated peptide (T. begellii)	amount of peptide at which retardation of the pDNA band was detected [11] [µg]	binding to chitin [12]
CC[C@H](C)[C@H](NC(=O)[C@H](CCCCN)NC(=O)[C@H](CO)NC(=O)[C@H](Cc1ccccc1)NC(=O)[C@H](CC(C)C)NC(=O)[C@H](CCCCN)NC(=O)[C@H](CCC(=O)O)NC(=O)[C@H](CC(C)C)NC(=O)[C@H](CCCNC(=N)N)NC(=O)[C@H](CCCCN)NC(=O)[C@H](Cc1ccccc1)NC(=O)[C@@H](NC(=O)[C@H](CCCCN)NC(=O)[C@H](CCCCN)NC(=O)[C@H](C)N)C(C)C)C(=O)N[C@@H](Cc1c[nH]c2ccccc12)C(=O)N[C@@H](CC(N)=O)C(=O)N[C@@H](CC(=O)O)C(=O)N[C@@H](CCCCN)C(N)=O [Anal 2] (H-AKKVFKRLEKLFSKIWNDK-NH2)	6.25 to 12.5	1.56 (≈ 3.71 µg/mL)	1.56 (≈ 3.71 µg/mL)	1.56 (≈ 3.71 µg/mL)	6.25 (≈ 14.9 µg/mL)	3.13 (≈ 7.44 µg/mL)	12.5 (≈ 29.7 µg/mL)	12.5 (≈ 29.7 µg/mL)	0.78 (≈ 1.85 µg/mL)	1.56 (≈ 3.71 µg/mL)								
CC[C@H](C)[C@H](NC(=O)[C@H](CCCCN)NC(=O)[C@H](CO)NC(=O)[C@H](Cc1ccccc1)NC(=O)[C@H](CC(C)C)NC(=O)[C@H](CCCCN)NC(=O)[C@H](CCC(=O)O)NC(=O)[C@H](CC(C)C)NC(=O)[C@H](CCCNC(=N)N)NC(=O)[C@H](CCCCN)NC(=O)[C@H](Cc1ccccc1)NC(=O)[C@@H](NC(=O)[C@H](CCCCN)NC(=O)[C@H](CCCCN)NC(=O)[C@H](C)N)C(C)C)C(=O)N[C@@H](CCC(N)=O)C(=O)N[C@@H](CC(N)=O)C(=O)N[C@@H](CC(=O)O)C(=O)N[C@@H](CCCCN)C(N)=O [HP (2–20), reference compound] (H-AKKVFKRLEKLFSKIQNDK-NH2)	12.5 to 25	3.13 (≈ 7.26 µg/mL)	1.56 (≈ 3.62 µg/mL)	6.25 (≈ 14.5 µg/mL)	12.5 (≈ 29 µg/mL)	12.5 (≈ 29 µg/mL)	25 (≈ 58 µg/mL)	25 (≈ 58 µg/mL)	0.78 (≈ 1.81 µg/mL)	3.13 (≈ 7.26 µg/mL)								
CC[C@H](C)[C@H](NC(=O)[C@H](CCCCN)NC(=O)[C@H](CO)NC(=O)[C@H](Cc1ccccc1)NC(=O)[C@H](CO)NC(=O)[C@H](CCCCN)NC(=O)[C@H](CCC(=O)O)NC(=O)[C@H](CC(C)C)NC(=O)[C@H](CCCNC(=N)N)NC(=O)[C@H](CCCCN)NC(=O)[C@H](Cc1ccccc1)NC(=O)[C@@H](NC(=O)[C@H](CCCCN)NC(=O)[C@H](CCCCN)NC(=O)[C@H](C)N)C(C)C)C(=O)N[C@@H](CCC(N)=O)C(=O)N[C@@H](CC(N)=O)C(=O)N[C@@H](CC(=O)O)C(=O)N[C@@H](CCCCN)C(N)=O [Anal 4] (H-AKKVFKRLEKSFSKIQNDK-NH2)	50 (≈ 115 µg/mL)	12.5 (≈ 28.7 µg/mL)	6.25 (≈ 14.3 µg/mL)	12.5 (≈ 28.7 µg/mL)	>12.5	>12.5	50 to 100	50 (≈ 115 µg/mL)	1.56 (≈ 3.58 µg/mL)	6.25 (≈ 14.3 µg/mL)								
melittin: antimicrobial peptide known to target the cell membrane											large influx of PI							
buforin II												3.6	5	unable to release any of the larger markers	unable to release any of the larger markers	distributed throughout the fungal cells	1	recognized only chitin
CC[C@H](C)[C@H](NC(=O)[C@H](CCCCN)NC(=O)[C@H](CO)NC(=O)[C@H](Cc1ccccc1)NC(=O)[C@H](CC(C)C)NC(=O)[C@H](CCCCN)NC(=O)[C@H](CCC(=O)O)NC(=O)[C@H](CC(C)C)NC(=O)[C@H](CCCNC(=N)N)NC(=O)[C@H](CCCCN)NC(=O)[C@H](CO)NC(=O)[C@@H](NC(=O)[C@H](CCCCN)NC(=O)[C@H](CCCCN)NC(=O)[C@H](C)N)C(C)C)C(=O)N[C@@H](CCC(N)=O)C(=O)N[C@@H](CC(N)=O)C(=O)N[C@@H](CC(=O)O)C(=O)N[C@@H](CCCCN)C(N)=O [Anal 5] (H-AKKVSKRLEKLFSKIQNDK-NH2)	50 (≈ 113 µg/mL)	6.25 (≈ 14.1 µg/mL)	3.13 (≈ 7.07 µg/mL)	6.25 (≈ 14.1 µg/mL)	>12.5	>12.5	100 (≈ 226 µg/mL)	50 to 100	3.13 (≈ 7.07 µg/mL)	3.13 (≈ 7.07 µg/mL)								
CC[C@H](C)[C@H](NC(=O)[C@H](CCCCN)NC(=O)[C@H](CO)NC(=O)[C@H](Cc1ccccc1)NC(=O)[C@H](CC(C)C)NC(=O)[C@H](CCCCN)NC(=O)[C@H](CCC(=O)O)NC(=O)[C@H](CC(C)C)NC(=O)[C@H](CCCNC(=N)N)NC(=O)[C@H](CCCCN)NC(=O)[C@H](Cc1ccccc1)NC(=O)[C@@H](NC(=O)[C@H](CCCCN)NC(=O)[C@H](CCCCN)NC(=O)[C@H](C)N)C(C)C)C(=O)N[C@@H](CCC(N)=O)C(=O)N[C@@H](CC(N)=O)C(=O)N[C@@H](Cc1c[nH]c2ccccc12)C(=O)N[C@@H](CCCCN)C(N)=O [Anal 1] (H-AKKVFKRLEKLFSKIQNWK-NH2)	6.25 (≈ 14.9 µg/mL)	0.78 (≈ 1.86 µg/mL)	1.56 (≈ 3.73 µg/mL)	1.56 (≈ 3.73 µg/mL)	6.25 (≈ 14.9 µg/mL)	3.13 (≈ 7.48 µg/mL)	12.5 (≈ 29.9 µg/mL)	12.5 (≈ 29.9 µg/mL)	0.39 (≈ 0.932 µg/mL)	1.56 (≈ 3.73 µg/mL)								
CC[C@H](C)[C@H](NC(=O)[C@H](CCCCN)NC(=O)[C@H](CO)NC(=O)[C@H](Cc1ccccc1)NC(=O)[C@H](CC(C)C)NC(=O)[C@H](CCCCN)NC(=O)[C@H](CCC(=O)O)NC(=O)[C@H](CC(C)C)NC(=O)[C@H](CCCNC(=N)N)NC(=O)[C@H](CCCCN)NC(=O)[C@H](Cc1ccccc1)NC(=O)[C@@H](NC(=O)[C@H](CCCCN)NC(=O)[C@H](CCCCN)NC(=O)[C@H](C)N)C(C)C)C(=O)N[C@@H](Cc1c[nH]c2ccccc12)C(=O)N[C@@H](CC(N)=O)C(=O)N[C@@H](Cc1c[nH]c2ccccc12)C(=O)N[C@@H](CCCCN)C(N)=O [Anal 3] (H-AKKVFKRLEKLFSKIWNWK-NH2)	3.13 (≈ 7.67 µg/mL)	0.78 (≈ 1.91 µg/mL)	0.78 (≈ 1.91 µg/mL)	0.78 (≈ 1.91 µg/mL)	3.13 (≈ 7.67 µg/mL)	1.56 (≈ 3.82 µg/mL)	6.25 (≈ 15.3 µg/mL)	3.13 to 6.25	0.39 (≈ 0.955 µg/mL)	1.56 (≈ 3.82 µg/mL)								
